Laboratory results published in patent US11014915B2, “Selective estrogen receptor degrader” (SUN PHARMA ADVANCED RESEARCH COMPANY LIMITED, priority 2019, dated 2021).

Tests used:
[1] = biological target: T1, ER-α in MCF-7 cells harboring ER wild type (Homo sapiens, UniProt P03372); test: ER-α degradation (SERD) assay, MCF-7 wild type; type: cell-based; conditions: MCF-7 Wt, 1 nM; for % of ER-α remaining at 1 nM: 4 days, western blot, vehicle control as 100%
T1 construct: evaluated in MCF-7 cells harboring ER wild type; endogenous in cells; host or cells: MCF-7
T1 sequence (P03372 1-595): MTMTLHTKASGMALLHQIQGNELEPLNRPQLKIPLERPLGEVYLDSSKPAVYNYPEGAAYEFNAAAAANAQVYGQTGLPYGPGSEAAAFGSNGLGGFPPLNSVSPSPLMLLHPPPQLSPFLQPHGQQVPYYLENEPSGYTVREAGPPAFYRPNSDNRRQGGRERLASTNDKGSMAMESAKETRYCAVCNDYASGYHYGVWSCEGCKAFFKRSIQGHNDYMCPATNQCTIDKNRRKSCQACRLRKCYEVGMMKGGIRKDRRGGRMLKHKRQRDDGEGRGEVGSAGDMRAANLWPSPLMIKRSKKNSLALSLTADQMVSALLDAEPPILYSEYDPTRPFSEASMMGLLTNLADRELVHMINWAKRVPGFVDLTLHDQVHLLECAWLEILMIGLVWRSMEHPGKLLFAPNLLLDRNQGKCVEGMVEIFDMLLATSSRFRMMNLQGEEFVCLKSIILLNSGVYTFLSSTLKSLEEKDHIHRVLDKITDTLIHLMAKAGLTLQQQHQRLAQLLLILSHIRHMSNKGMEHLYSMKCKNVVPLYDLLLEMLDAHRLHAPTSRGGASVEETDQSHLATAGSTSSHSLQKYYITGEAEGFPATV
Method: Selective Estrogen Receptor Degradation (SERD) Assay:
The SERD activity for the test compounds was evaluated in MCF-7 cells harboring ER wild type, and MCF-7 cells harboring mutant ER (WT/D538G and WT/Y537S). Briefly, cells were plated in phenol red free RPMI1640 medium supplemented with 5% charcoal stripped fetal bovine serum. The seeding density was 40000 cells/well for MCF-7 WT and MCF-7 D538G and 50000 cells/well MCF-7 Y537S in a 48-well plate. Following overnight incubation, the cells were treated with varying concentrations of test compounds (final concentration: 1000 nM to 0.01 nM, 0.1% DMSO) for 4 days. The cells were lysed using PBS supplemented with 1 mM EDTA, 0.5% Triton X-100, 5 mM NaF, 6 M urea, and 1× Protease inhibitor cocktail. The lysate was analyzed for ER alpha protein using western blot. For the western blot, the cell lysate (12.5-40 μg total protein) was resolved on a 10% SDS PAGE and transferred onto a PVDF membrane. The blots were blocked using 5% skim milk powder in 0.1% PBS-T for 1 hour at room temperature, followed by co-incubation with rabbit anti-human β-actin antibody and rabbit anti-human ERα antibody for 2 hours at room temperature. The blots were subsequently probed with anti-rabbit IgG-HRP conjugate as secondary antibody for 1 hour at room temperature. The blots were developed by using West Pico Super Signal Chemiluminescence substrate and the bands were processed for densitometry analysis using Image Lab software (BioRad version 6.0.0). ERα band intensity was normalized to that housekeeping protein for respective samples. The % ER remaining was calculated by normalizing against the vehicle control (as 100%).

[2] = system: subcutaneous MCF7-Y537S xenografts; test: In-vivo efficacy in MCF7-Y537S mice xenografts; parameters: species or system female athymic nude mice; conditions: for % Tumor growth inhibition compared to vehicle group after 28 days: p.o., once daily
Method: In-Vivo Efficacy of Compound of Formula I and Compound of Formula Ia: […]
The efficacy of the compound of Formula I and the compound of Formula Ia were evaluated in female athymic nude mice harboring subcutaneous MCF7-Y537S xenografts. Dose formulations of the compound of Formula I and the compound of Formula Ia were prepared in Tween 80 (0.4% v/v of the total volume of suspension) in 0.5% w/v carboxymethylcellulose (CMC) and administered once daily orally for 28 days. Two perpendicular diameters of tumor were measured with digital Vernier caliper. Tumor volume (V) was calculated using the following equation: V=(a^2×b)/2, where “a” is the width of the tumor (small diameter), and “b” the length (large diameter), both in millimeters. Tumors were monitored twice weekly and compared with a vehicle treated group.

Compound | SERD activity (in words) [1] | % of ER-α remaining at 1 nM [1] [%] | further results
CC1=C(c2cc(F)cc(F)c2)C(c2ccc(/C=C/CN3CCC(CF)CC3)cc2)Oc2cc(O)ccc21 (racemic) [Compound 3, 3-(3,5-difluorophenyl)-2-{4-[(E)-3-(4-fluoromethylpiperidin-1-yl)propenyl]phenyl}-4-methyl-2H-chromen-7-ol] | negligible SERD activity |  | 
CC1=C(c2cc(F)cc(F)c2)C(c2ccc(/C=C/CN3CC(CF)C3)cc2)Oc2ccc(O)cc21 (racemic) [Compound 2, 3-(3,5-difluorophenyl)-2-[4-[(E)-3-[3-(fluoromethyl)azetidin-1-yl]prop-1-enyl]phenyl]-4-methyl-2H-chromen-6-ol] | complete loss of the SERD activity | 100 | 
CC1=C(c2cc(F)cc(F)c2)C(c2ccc(/C=C/CN3CC(CF)C3)cc2)Oc2cc(O)ccc21 (racemic) [Formula I, 3-(3,5-difluorophenyl)-2-[4-[(E)-3-[3-(fluoromethyl)azetidin-1-yl]prop-1-enyl]phenyl]-4-methyl-2H-chromen-7-ol] |  |  | % Tumor growth inhibition compared to vehicle group after 28 days ([2]; 50 mg/kg): 46%; % Tumor growth inhibition compared to vehicle group after 28 days ([2]; 100 mg/kg): 57%; Tumor growth compared to the vehicle group (in words) ([2]; once daily orally for 28 days): significant reduction in the tumor growth

More lines, main results first:

SERD activity (in words) [1] | % of ER-α remaining at 1 nM [1] [%] | Compound | further results
very negligible SERD activity | 80.8 | CC1=C(c2cc(F)cc(F)c2)C(c2ccc(/C=C\CN3CC(CF)C3)cc2)Oc2cc(O)ccc21 (racemic) [Compound 6, 3-(3,5-difluorophenyl)-2-{4-[(Z)-3-(3-fluoromethylazetidin-1-yl)propenyl]phenyl}-4-methyl-2H-chromen-7-ol] | 
negligible SERD activity |  | CC1=C(c2cc(F)cc(F)c2)C(c2ccc(/C=C/CN3CC[C@@H](CF)C3)cc2)Oc2cc(O)ccc21 (mixture of isomers) [Compound 4, 3-(3,5-difluorophenyl)-2-[4-[(E)-3-[(3R)-3-(fluoromethyl)pyrrolidin-1-yl]prop-1-enyl]phenyl]-4-methyl-2H-chromen-7-ol] | 
complete loss of SERD activity | 100 | CC1=C(c2cc(F)cc(F)c2)C(c2ccc(C#CCN3CC(CF)C3)cc2)Oc2cc(O)ccc21 (racemic) [Compound 7, 3-(3,5-difluorophenyl)-2-[4-[3-[3-(fluoromethyl)azetidin-1-yl]prop-1-ynyl]phenyl]-4-methyl-2H-chromen-7-ol] | 
negligible SERD activity |  | CC1=C(c2cc(F)cc(F)c2)C(c2ccc(/C=C/CN3CC[C@@H](C)C3)cc2)Oc2cc(O)ccc21 (mixture of isomers) [Compound 5, 3-(3,5-difluorophenyl)-4-methyl-2-[4-[(E)-3-[(3R)-3-methylpyrrolidin-1-yl]prop-1-enyl]phenyl]-2H-chromen-7-ol] | 
